Results from US9975914B2, “Antimicrobial preparation and uses thereof” (Akeso Biomedical, Inc., priority 2015, dated 2018).
Where “and” joins values, the source holds several entries; their conditions need not be identical. Equal values may be shown once. Entries after “also recorded” stand apart in the source; their conditions may differ. Marks after values point to notes of the source that are not given here.

Experiments:
Campylobacter = test: Broiler trial: Campylobacter carriage in droppings and caeca; assay type: in vivo; settings: chickens challenged day 20
Experimental: (§1) A study was performed to evaluate growth promotion and reduction of Campylobater carriage using FeQ and FeTyr in Ross 308 male broilers with 7 treatment groups. Each treatment group comprised four replicates of 10 birds per pen (40 birds/treatment group and 4 pens of 10 birds/treatment group), and there were 2 control groups and 5 test groups. All the test groups and one of the control groups were exposed at day 20 of the trial to dirty litter, which tested positive for Campylobacter. This method was used to provide a more natural method to Campylobater challenge the birds. Thus there was a positive control where one treatment group was challenged with Campylobacter and one negative control group where the birds were not challenged, and five treatment groups that were all challenged with Campylobacter. The total number of birds used in the 7 treatment groups was 280. Treatment group 1 was a negative control where birds just received the commercial feed, and were not challenged with dirty litter containing Campylobacter. Treatment group 2 was the positive control where the birds received the commercial feed, and were challenged with dirty litter containing Campylobater at day 20. Treatment group 3 received 0.22 g/L of FeQ in their drinking water and 0.22 g/Kg FeQ in their feed during the entire trial, and was challenged with dirty litter containing Campylobater at day 20. Treatment group 5 received 0.22 g/L of FeQ in their drinking water during the entire trial, and was challenged with dirty litter containing Campylobater at day 20. Treatment group 6 received 0.22 g/kg FeQ in their feed during the entire trial, and was challenged with dirty litter containing Campylobater at day 20. Treatment group 7 received 0.022 g/L FeQ in their drinking water during the entire trial, and was challenged with dirty litter containing Campylobater at day 20. Treatment group 8 received 0.02 g/L FeTyr in their drinking water during the entire trial, and was challenged with dirty litter containing Campylobater at day 20. The FeTyr was pre-dissolved in DMSO, and diluted to provide a solution of 0.02 g/L of FeTyr in water. (An additional treatment group 4 was terminated due to solubility issues.)
(§2) Prior to challenging the chickens with dirty litter containing Campylobacter at day 20, each pen was tested for Campylobater using cloacal swabs. All pens tested negative for Campylobater prior to the challenge. At day 20, litter, which was naturally Campylobacter-contaminated was tested to confirm the presence of Campylobacter, and then added (approximately 2 kg/pen) to the litter in all pens except in pens for treatment group 1 (the negative control). At day 28, the pen litter was sampled to confirm the presence or absence of Campylobacter. At day 41 and 42, caecal samples were taken from 3 birds per pen (12 birds per treatment group) and tested for Campylobater enumeration. At day 42, digesta, fecal samples, and caecal content was taken from all birds, and pooled per pen. Two birds per pen were also taken from treatment groups 1-3, euthanized, and blood samples taken. Samples were analyzed for blood chemistry, including analysis for alkaline phosphatase, aspartate amino transferase, alanine amino transferase, gamma-glutamyl transferase, lactate dehydrogenase, total protein, albumin, globulin, amylase and glucose.

[1] = tested on: PAO-1 strains of Pseudomonas aeruginosa; test: Biofilm formation on contact lens (ESEM); assay type: cell-based; settings: 340 μM in LB, 37° C., 24 hours
Experimental: To investigate biofilm formation on the contact lens, clinically determined PAO-1 strains of Pseudomonas aeruginosa were incubated with the lenses in either Luria-Bertani Media (LB) or LB with a final concentration of 340 μM FeQ at 37° C. for 24 hours in a non-shaking incubator. The lenses were then washed 6 times with PBS+0.05% Tween, before being stored overnight in PBS+0.05% Tween. In preparation for the ESEM, formaldehyde was added to a final concentration of 1% and incubated for 10 minutes in order to inactivate the bacteria. The lenses were then washed 4 times with PBS+0.05% Tween, and immediately before analysis the lenses were washed a further two times with distilled water.

[2] = tested on: Pseudomonas aeruginosa PAO-1; test: Biofilm coverage rate on glass slide; assay type: cell-based; settings: 100 μM; 72 hours
[3] = tested on: uropathogenic Escherichia coli UPEC-536; test: Biofilm coverage rate on glass slide; assay type: cell-based; settings: 0.1 μM, 1 μM, 10 μM and 100 μM; 72 hours; listed as Fe-QA
[4] = Treatment of an acne patient; assay type: in vivo, human
Experimental: A patient was treated continuously for 30 days by applying a solution of ferric quinate (340 μM) to their acne vulgarism (“acne”) once each day. Within 5 days of the start of treatment, their acne, which had not previously responded to treatment with antibiotics, began to show signs of healing.

[5] = Broiler trial: growth performance; assay type: in vivo, chicken (Ross 308 male broilers)
Experimental: as §1
The birds were fed with a commercial three-phase feeding program using starter, grower and finisher feeds with formulations shown in Table 2. All diets had coccidiostat (MAXIBAN® at 0.0625% in starter and […] and MONTEBAN® at 0.06% in finisher phase). Xylanase (RONOZYME® WX at 200 g per ton) and phytase (RONOZYME® P at 150 grams per ton) were added to all diets.
The feeding program is show in Table 3. The birds were reared in floor pens to day 42, and fed starter, grower and finisher feed at day 0 to 11, 11 to 24, and 24 to 42 days, respectively. All birds were weighed individually and feed weigh backs recorded per pen at day 0, 11, 21, 24 and 42 days.
as §2, with “Samples were analyzed for blood chemistry, including analysis for alkaline phosphatase, aspartate amino transferase, alanine amino transferase, gamma-glutamyl transferase, lactate dehydrogenase, total protein, albumin, globulin, amylase and glucose.” left out

[6] = tested on: Staphylococcus epidermidis F1513; test: Biofilm formation on plastic coated UV beads; assay type: cell-based; settings: different concentrations of Fe-QA; T=0 and T=24 h
Experimental: (§3) Bacteria (Enterococcus faecalis NCTC 12697, Staphylococcus epidermidis F1513 and Staphylococcus aureus ATCC 25923) were grown on Brain heart infusion (BHI) passaged to new medium either containing Fe-QA or alone. Growth suspensions were prepared at 0.0001 OD/mi and then allowed to grow at 37° C. under nounal atmospheric conditions for 24 h in BHI with plastic coated UV beads (Lascells). […], 10 μl suspension was serially diluted 10 fold to 10-3, 10-4, 10-5, 10-6, 10-7, 10-8. For each dilution, 10 μl was spotted on BHI agar plates and colonies counted after 24 h. The beads were also removed washed in PBS before adding to 1 ml PBS. After vortex mixing, 10 μl of the cell suspension was serially diluted as above and cell counts carried out.

[7] = tested on: Enterococcus faecalis NCTC 12697; test: Biofilm formation on plastic coated UV beads; assay type: cell-based; settings: different concentrations of Fe-QA; T=0 and T=24 h
Experimental: as §3

[8] = tested on: Staphylococcus aureus ATCC 25923; test: Biofilm formation on plastic coated UV beads; assay type: cell-based; settings: different concentrations of Fe-QA; T=0 and T=24 h
Experimental: as §3

[9] = tested on: bacterial flora present in the mouth; test: Biofilm formation on extracted human teeth (CEPLAC staining); assay type: cell-based; settings: FeQ 340 μM; 48 hours of culturing
Experimental: Molar teeth were extracted from human patients, and mouth swabs taken from each patient to obtain samples of each patient's bacterial flora present in the mouth. The mouth swabs were cultured in the laboratory using LB media in order to grow bacterial populations ordinarily present in the mouth of each patient. The extracted teeth were washed and brushed extensively using PBS buffer and ethanol. Each patient's tooth was then placed in the bacterial culture prepared from that patient's bacterial flora sample, and cultured aerobically for 24 hours in LB media. The teeth were then stained with CEPLAC™ (Manx Healthcare Ltd, Warwick, UK), and washed three times with PBS-Tween (50 mL) to determine if biofilm had been formed on the teeth.
All teeth stained red indicating the presence of biofilm on the teeth after just 24 hours. The same teeth were then cleaned using PBS buffer and ethanol, and the procedure repeated except with 48 hours of culturing in the presence of FeQ (340 μM).

[10] = tested on: Enteropathogenic E. coli (EPEC) E2348/69; test: Crystal violet assay of attachment to plastic well surface; assay type: cell-based; settings: 48 hours
Experimental: (§4) Enteropathogenic E. coli (EPEC) E2348/69 were grown in wells for 48 hours at 37° C. in the presence of FeQ (100 μM), and in the absence of FeQ (as control). After 48 hours, the wells were washed in order to remove suspended cells. Crystal violet was then added to each well. The wells were then washed to remove excess dye. A mixture of acetone/ethanol was then added to the wells to re-suspend any cells attached to the plastic surface of the wells, and dissolve any dye present. The presence of dye in each well was then quantified by measuring the O.D. at 570 nm.
as §4, with “FeDOPA (10-250” for “FeQ (100”, “FeDOPA” for “FeQ”

[11] = tested on: mature EPEC-ΔcsrA biofilm; test: Disruption of preformed biofilm, BioFlux system; assay type: cell-based, E. coli; settings: FeDOPA 100 μM; 20 hours
[12] = FeQ treatments 3, 5, 6, 7, FeTyr treatment 8, challenged day 20
[13] = treatment 3: 0.22 g/L FeQ in water + 0.22 g/kg FeQ in feed, challenged day 20
[14] = treatment 5: 0.22 g/L FeQ in water, challenged day 20
[15] = treatment 6: 0.22 g/kg FeQ in feed, challenged day 20
[16] = treatment 7: 0.022 g/L FeQ in water, challenged day 20

In the case of `O=C([O-])C1(O)CC(O)C(O)C(O)C1.O=C([O-])C1(O)CC(O)C(O)C(O)C1.O=C([O-])C1(O)CC(O)C(O)C(O)C1.[Fe+3]` (stereo not drawn) [FeQ, ferric quinate], the “average Campylobacter cfu/g of caeca samples at day 42 versus positive control” value (Campylobacter; FeQ treatments 3, 5, 6, 7, FeTyr treatment 8) was “lower levels of Campylobacter in their caeca; also recorded: positive effect on reducing Campylobacter infection of poultry”, the “Campylobacter cfu/g of bird droppings at day 42 versus positive control” value (Campylobacter; FeQ treatments 3, 6, 7, FeTyr treatment 8) was “positive effect on reducing Campylobacter infection of poultry” and the “Campylobacter colony forming units per gram of bird droppings at day 42” value (Campylobacter; treatment 3: 0.22 g/L FeQ in water + 0.22 g/kg FeQ in feed) was 4,860 cfu/g. The “Campylobacter colony forming units per gram of bird droppings at day 42” value (Campylobacter; treatment 6: 0.22 g/kg FeQ in feed) was 12,800 cfu/g, the “Campylobacter colony forming units per gram of bird droppings at day 42” value (Campylobacter; treatment 7: 0.022 g/L FeQ in water) was 900,000 cfu/g and the “biofilm formation on contact lens (ESEM images)” value [1] was “inhibits biofilm formation”. For the same molecule, the “biofilm formation (coverage rate on glass slide)” value [2] was “inhibits the formation of biofilm”, the “biofilm formation (coverage rate on glass slide)” value [3] was “inhibits founation of biofilm; also recorded: inhibits the formation of biofilm” and the “acne outcome after treatment for 30 days” value ([4]; solution 340 μM applied once each day) was “completely healed”. The “recurrence of acne after discontinuation of treatment for over one year” value ([4]; solution 340 μM applied once each day for 30 days) was “did not recur”, the “time to first signs of healing of acne” value ([4]; solution 340 μM applied once each day, patient) was ≤ 5 days and the “MFCR (mortality adjusted feed conversion ratio) 0-20” value ([5]; FeQ groups 3, 5, 6, 7 pooled, absence of Campylobacter challenge) was 1.2996. The “MFCR at day 42 versus positive control” value [5, 12] was “positive effect on MFCR”, the “average body weight at day 42 versus positive control” value [5, 12] was “positive effect on growth” and the “ABW (average body weight) Day 0” value [5, 13] was 0.040 kg. For the same molecule, the “MFCR (mortality adjusted feed conversion ratio) Day 0-11” value [5, 13] was 1.181^ab, the “MFCR (mortality adjusted feed conversion ratio) Day 0-42” value [5, 13] was 1.595 and the “ABW (average body weight) Day 0” value [5, 14] was 0.040 kg. The “MFCR (mortality adjusted feed conversion ratio) Day 0-11” value [5, 14] was 1.210^ab, the “MFCR (mortality adjusted feed conversion ratio) Day 0-42” value [5, 14] was 1.560 and the “ABW (average body weight) Day 0” value [5, 15] was 0.041 kg. For the same molecule, the “AFD (average feed intake) Day 0-11” value [5, 15] was 0.360 kg, the “AWG (average weight gain) Day 0-11” value [5, 15] was 0.310 kg and the “AWG (average weight gain) Day 11-20” value [5, 15] was 0.640 kg. For the same molecule, the “MFCR (mortality adjusted feed conversion ratio) Day 0-11” value [5, 15] was 1.168^a, the “MFCR (mortality adjusted feed conversion ratio) Day 0-42” value [5, 15] was 1.563 and 1,563 and the “ABW (average body weight) Day 0” value [5, 16] was 0.040 kg. For the same molecule, the “MFCR (mortality adjusted feed conversion ratio) Day 0-11” value [5, 16] was 1.236^b, the “MFCR (mortality adjusted feed conversion ratio) Day 0-42” value [5, 16] was 1.612 and the “biofilm formation on plastic coated UV beads” value [6] was “inhibited S. epidermidis biofilm formation”. The “biofilm formation on plastic coated UV beads” value [7] was “inhibited E. faecalis biofilm formation”, the “biofilm formation on plastic coated UV beads” value [8] was “inhibited S. aureus biofilm formation” and the “biofilm on teeth (red CEPLAC staining)” value [9] was “no teeth stained red”. For the same molecule, the “attachment of EPEC cells to plastic well surface (crystal violet O.D. at 570 nm)” value ([10]; FeQ 100 μM) was “little or no attachment of bacterial cells to the surface and no biofilm formation”.

With Fe(DOPA)3 [FeDOPA] the “dispersion of mature biofilm” value [11] was “dispersed the biofilm” and the “attachment of EPEC cells to plastic well surface (crystal violet O.D. at 570 nm)” value ([10]; FeDOPA 68-250 μM) was “attachment of bacterial cells to the surface and biofilm formation is inhibited”.
